Reference: patent USRE48253E1, “Methotrexate adjuvants to reduce toxicity and methods for using the same” (Tosk, Inc., priority 2008, dated 2020)
“Also recorded” adds a separate entry of the source. Where two headings read alike, the source gives them in different places.

Key:
[1] = tested on: AS283 cells; assay: Cell Culture Study II: MTX cytotoxicity, CellTiter-Glo; format: cell-based, human; conditions: TK-112690 1, 10, 100 μM with MTX 0.01-100 μM, 72 hours
Method: In this study, AS283 cells were grown in RPMI-1640 supplemented with L-glutamine dipeptide, sodium pyruvate, HEPES, and 10% FBS. AS283 cells were used to seed three 96-well plates with 10,000 cells/well in a total volume of 50 μL. Medium alone wells were seeded 100 μL medium. Plates were incubated overnight. The following day, 25 μL of the TK-112690 and MTX stock solutions were added to the appropriate wells. TK-112690 was added first, followed by MTX in all wells. 25 μL of vehicle was added to TK-112690 alone wells. 25 μL of vehicle and 25 μL medium were added to vehicle control wells, and 50 μL medium was added to cell control wells. Cell viability was measured using CellTiter-Glo and DOX (10 μM) was used as a reference standard. The plates were incubated at 37° C., 5% CO2 for 72 hours then removed from the incubator and placed on the bench at room temperature for 30 min. The plates were not stacked or shaken. […] Luminescence was recorded on TriLux. […]
AS283 cells were grown in RPMI-1640 supplemented with L-glutamine dipeptide, sodium pyruvate, HEPES, and 10% FBS. […] Cell viability was measured using CellTiter-Glo and DOX (10 μM) was used as a reference standard.
The plates were incubated at 37° C., 5% CO2 for 72 hours then removed from the incubator and placed on the bench at room temperature for 30 min. […] Luminescence was recorded on TriLux.

[2] = target: mouse small intestinal UPase enzyme (Mus musculus, UniProt P52624); assay: UPase inhibition in mouse small intestinal tissue homogenate (HPLC of uracil); format: biochemical
Method: A range of TK-112690 doses were studied for the their ability to prevent metabolic breakdown of uridine through the in vitro inhibition of mouse and human small intestinal UPase enzyme. UPase activity was determined by HPLC analysis using UV detection of uracil concentration (UPase catabolizes uridine into uracil and ribose-1-phosphate). The UPase enzyme material was prepared from homogenized mouse and human being small intestinal tissue. TK-112690 was dissolved in water (50 mg/ml) and analyzed for UPase inhibition in aqueous solution containing 5 mM uridine, 0.01 M Tris, 0.01 M phosphate, 1 mM EDTA, and 1 mM DTT. Reactions were performed at 37° C. at pH of 7.3.
The aim of this study was to evaluate TK-112690 […] as an inhibitor of uridine phosphorylase (UPase) enzyme activity. The range of TK-112690 doses studied for ability to prevent metabolic breakdown of uridine, through the in vitro inhibition of mouse and human small intestinal UPase enzyme, was 0, 0.1, 0.5, 1, 5, 10, 50, 100, 500, 1000, 5000 and 10000 μM). Detection of UPase activity was determined by HPLC analysis using UV detection of uracil concentration (UPase catabolizes uridine into uracil and ribose-1-phosphate).
The UPase enzyme material was prepared from homogenized mouse and human being small intestinal tissue. TK-112690 was dissolved in water (50 mg/ml) and analyzed for UPase inhibition in aqueous solution containing 5 mM uridine, 0.01 M Tris, 0.01 M phosphate, 1 mM EDTA, and 1 mM DTT. Reactions were performed at 37° C. at pH of 7.3.
TK-11260 inhibition of mouse and human UPase was analyzed by reverse phase HPLC using UV detection. HPLC analysis was performed at ambient temperature with a Water 2695 Alliance system equipped with a C18 ECONOSIL 5 U ALLtech column. 20 μl of UPase reaction samples were auto-injected onto column. Mobile phase consisted of water eluting for first 2.5 ml and acetonitrile gradient to 100% in 12.5 ml (flow rate 0.5 ml/min). The outlet fluent was monitored by UV absorption in the range of 240-320 nm. UPase enzymatic activity was based on the AUC of the uracil peaks.

Sequence of mouse small intestinal UPase enzyme (P52624 whole entry, looked up): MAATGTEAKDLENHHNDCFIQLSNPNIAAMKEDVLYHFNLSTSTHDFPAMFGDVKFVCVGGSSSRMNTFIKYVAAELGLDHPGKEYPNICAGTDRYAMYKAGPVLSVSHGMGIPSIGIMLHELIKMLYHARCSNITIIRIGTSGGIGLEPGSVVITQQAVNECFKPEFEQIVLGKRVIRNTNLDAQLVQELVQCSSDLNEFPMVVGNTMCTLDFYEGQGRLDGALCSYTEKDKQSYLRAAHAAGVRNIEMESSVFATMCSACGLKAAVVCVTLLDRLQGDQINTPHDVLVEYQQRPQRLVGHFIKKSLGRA

## Cc1cn2c(nc1=O)O[C@H]1[C@H](O)[C@@H](CO)O[C@H]12 [TK-112690, 2,2′-anhydro-5-methyluridine]
[1]
  effect on antiproliferative activity (cytotoxicity) of MTX: did not diminish the cytotoxicity of MTX; also recorded: not altered
[2]; 5 mM uridine, 37° C., pH 7.3, read-out: IC50, mouse small intestinal (murine) UPase
  IC50: 12.5 µM
[2]; Table 3, murine UPase, test method of Experiment IX, read-out: UPase IC50
  IC50: < 100 µM
